In the supplement of paper PMC4862054:
Values joined by “and” are separate entries in the source; they are usually repeats but may differ in a detail not shown here. Identical values can stand only once.

Tests used:
Conditions in all cases: incubation time: 72 h
[1] = tested on: CAL-148; experiment: normalised viability (% of control), CellTiter-Blue; higher = more viable cells (about 100 = DMSO control)
Description: (§1)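 DSRT, CellTiter-Blue viability, 72 h incubation. Signal is normalised to DMSO and benzethonium chloride controls. Value is the normalised response at dose 3.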

[2] = tested on: CAL-51; experiment: as above
Description: as §1

[3] = tested on: HCC1143; experiment: as above
Description: as §1

[4] = tested on: HCC1937; experiment: as above
Description: as §1

[5] = tested on: HDQ-P1; experiment: as above
Description: as §1

[6] = tested on: BT-474; experiment: drug sensitivity score (DSS), CellTiter-Glo (DSS (AUC-based score)); higher = stronger drug effect (viability inhibition or cytotoxicity); extreme values may be limits of the assay
In short: (§2)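 Plates with 384 wells held compound at 5 concentrations in 10-fold steps over a 10,000-fold range specific to each compound. Breast cancer cell lines were added in 20 µl suspension and incubated 72 h, then read for CellTox Green and CellTiter-Glo signals, with each plate normalised to 0.1 % DMSO and a positive kill control. The drug sensitivity score is based on the area under the fitted dose-response curve.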

[7] = tested on: BT-549; experiment: as above
In short: as §2

[8] = tested on: CAL-120; experiment: as above
In short: as §2

[9] = tested on: CAL-148; experiment: as above
In short: as §2

[10] = tested on: CAL-51; experiment: as above
In short: as §2

[11] = tested on: CAL-85-1; experiment: as above
In short: as §2

[12] = tested on: DU-4475; experiment: as above
In short: as §2

[13] = tested on: HCC1143; experiment: as above
In short: as §2

[14] = tested on: HCC1599; experiment: as above
In short: as §2

[15] = tested on: HCC1937; experiment: as above
In short: as §2

[16] = tested on: HDQ-P1; experiment: as above
In short: as §2

[17] = tested on: Hs578T; experiment: as above
In short: as §2

[18] = tested on: MCF-10A; experiment: as above
In short: as §2

[19] = tested on: MDA-MB-231; experiment: as above
In short: as §2

[20] = tested on: MDA-MB-436; experiment: as above
In short: as §2

[21] = tested on: MDA-MB-453; experiment: as above
In short: as §2

[22] = tested on: MDA-MB-468; experiment: as above
In short: as §2

[23] = tested on: MFM-223; experiment: as above
In short: as §2

[24] = tested on: SK-BR-3; experiment: as above
In short: as §2

[25] = tested on: CAL-120; experiment: drug sensitivity score (DSS), CellTox Green (DSS (AUC-based score)); higher = stronger drug effect (viability inhibition or cytotoxicity); extreme values may be limits of the assay
In short: as §2

[26] = tested on: CAL-148; experiment: as above
In short: as §2

SMILES	normalised viability ([1]; 10 nM)	normalised viability ([2]; 10 nM)	normalised viability ([3]; 100 nM)	normalised viability ([4]; 100 nM)	normalised viability ([5]; 10 nM)	drug sensitivity score [6]	drug sensitivity score [7]	drug sensitivity score [8]	drug sensitivity score [9]	drug sensitivity score [10]	drug sensitivity score [11]	drug sensitivity score [12]	drug sensitivity score [13]	drug sensitivity score [14]	drug sensitivity score [15]	drug sensitivity score [16]	drug sensitivity score [17]	drug sensitivity score [18]	drug sensitivity score [19]	drug sensitivity score [20]	drug sensitivity score [21]	drug sensitivity score [22]	drug sensitivity score [23]	drug sensitivity score [24]	drug sensitivity score [25]	drug sensitivity score [26]	normalised viability ([1]; 1 nM) [%]	normalised viability ([2]; 1 nM) [%]	normalised viability ([3]; 10 nM) [%]	normalised viability ([4]; 10 nM) [%]	normalised viability ([5]; 1 nM) [%]
CCc1c2c(nc3ccc(OC(=O)N4CCC(N5CCCCC5)CC4)cc13)-c1cc3c(c(=O)n1C2)COC(=O)[C@]3(O)CC [Irinotecan]	86% and 102%	99.2% and 118%	89.1% and 112%	93.2% and 84.8%	102% and 126%	1.83	4	2.72	7.67	3.68	0	4.98	0	1.9	0	0	0	1.93	0	7.54	0	7.12	0	4.28	0.997	11.8	–	–	–	–	–
COc1cc2ncnc(Nc3ccc(F)c(Cl)c3)c2cc1OCCCN1CCOCC1 [Gefitinib]	84.8% and 87.6%	107%	63% and 86.8%	102% and 92%	103% and 100%	0	0	0	2.08	0	9.09	0	0	0	2.45	7.21	0	17.7	0	0	0	5.4	0	10.1	0	2.34	–	–	–	–	–
CO[C@H]1C[C@@H]2CC[C@@H](C)[C@@](O)(O2)C(=O)C(=O)N2CCCC[C@H]2C(=O)O[C@H]([C@H](C)C[C@@H]2CC[C@@H](OP(C)(C)=O)[C@H](OC)C2)CC(=O)[C@H](C)/C=C(\C)[C@@H](O)[C@@H](OC)C(=O)[C@H](C)C[C@H](C)/C=C/C=C/C=C/1C [Ridaforolimus]	–	–	–	–	–	1.18	12.4	8.4	7.53	8.46	8.38	4.31	8.23	0	7.76	2.99	9.58	0	0	4.1	8.14	12.7	6.61	10.4	0	0	60.1	79	56.4	58.9	110
Cc1ccc(NC(=O)c2ccc(CN3CCN(C)CC3)cc2)cc1Nc1nc(-c2cccnc2)cs1 [Masitinib]	89.8%	100%	83%	107%	116%	1.81	3.23	0	0	4.22	0	0	0	1.31	0.648	0.939	0	0	1.26	0	3.95	4.71	0.34	1.79	0	0	–	–	–	–	–
